Data reported in US20220409686A1, “MEDICAL COMPOSITIONS AND THEIR USES” (BIOMILLENIA SAS, priority 2019, published 2022).
“Also recorded” adds a separate entry of the source.

Columns and labels:
Format in all cases: cell-based
Malassezia furfur = experiment: disc diffusion inhibition assay (Example 1); conditions: M. furfur lawn in soft agar; 6 mm discs soaked with 15 ul supernatant or ketoconazole 1 mg/ml in DMSO; 5 days incubation
Procedure: (§1) FIG. 1|Inhibition assays of the fungicide ketoconazole as positive control for inhibition and Kazachstania unispora supernatant on M. sympodialis, M. furfur, M. restricta and M. globosa. Inhibition assays were performed using the disc diffusion method. Discs were soaked with ketoconazole (1 mg/ml) or K. unispora supernatant and placed on agar plates containing a soft layer inoculated with a single culture of the different Malassezia species to be tested.
(§2) In order to identify strains inhibiting Malassezia growth, inhibition assays were performed using the disc diffusion method. This method consists in disposing discs imbibed with potential inhibitory substances on Petri plates containing a strain of interest. After optimal growth of the strain of interest, growth inhibition can be observed around discs soaked with substances having an inhibitory effect. Potential inhibitory substances tested in this experiment are supernatants obtained after individually culturing a collection of fungal and bacterial strains. After an incubation of 10 days in their optimal broth, each culture was centrifuged and the supernatant was filtered and further stored at −20° C. Ketoconazole, a fungicide, was used as a positive control for Malassezia growth inhibition. It was diluted in dimethyl sulfoxide at 1 mg/ml. The collection of supernantants was tested on the following species from the genus Malassezia: Malassezia restricta, Malassezia globosa, Malassezia furfur and Malassezia sympodialis. All strains were streaked from −80° C. stock on Modified Leeming and Notman (MLN) agar plates and incubated 10 days at 30° C. A 5 ml liquid culture of each species was made in MLN broth and incubated at 30° C. for 2 days for M. furfur and M. sympodialis and 5 days for M. restricta and M. globosa. To allow a lawn growth of the different Malassezia strains tested, Petri plates were prepared as follows: a bottom layer of 50 ml Modified Sabouraud Dextrose (MSD) agar was poured in Petri plates. The soft agar, constituting the top layer, was a mix of 12.5 ml MSD agar, 10.5 ml MLN broth and 2 ml of liquid culture. Plates were allowed to dry for one hour, then, 6 mm-diameter Whatman™ discs were soaked with 15 ul of each thawed supernatants and ketoconazole and placed on the soft agar plate containing the solidified Malassezia monoculture layer. After an incubation of 5 days, inhibition area could be easily observed around discs. As expected, ketoconazole inhibited all 4 Malassezia species tested in this experiment. […] The strain from which the inhibitory supernatant has been produced was further sequenced using the Sanger technology. The internal transcribed spacer (ITS) of this strain was taxonomically assigned to the yeast Kazachstania unispora (BLASTn, 99% identity, 99% query cover, e-value 0.00).

Malassezia globosa [1] = experiment: disc diffusion inhibition assay (Example 1); conditions: M. globosa lawn in soft agar; 6 mm discs soaked with 15 ul supernatant or ketoconazole 1 mg/ml in DMSO; 5 days incubation
Procedure: as §1, §2

Malassezia restricta [2] = experiment: disc diffusion inhibition assay (Example 1); conditions: M. restricta lawn in soft agar; 6 mm discs soaked with 15 ul supernatant or ketoconazole 1 mg/ml in DMSO; 5 days incubation
Procedure: as §1, §2

Malassezia sympodialis = experiment: disc diffusion inhibition assay (Example 1); conditions: M. sympodialis lawn in soft agar; 6 mm discs soaked with 15 ul supernatant or ketoconazole 1 mg/ml in DMSO; 5 days incubation
Procedure: as §1, §2

Malassezia globosa [3] = experiment: modified disc diffusion assay with living culture (Example 2); conditions: M. globosa lawn; discs soaked with 15 ul exponentially growing Acetobacter culture or ketoconazole 1 mg/mL in DMSO; 5 days incubation
Procedure: (§3) FIG. 1|Inhibition assays of M. restricta and M. globose by growth of Acetobacter fabarum. Discs were soaked with ketoconazole (1 mg/ml in DMSO) or exponentially growing Acetobacter fabarum culture and placed on agar plates containing a soft layer inoculated with a single culture of the different Malassezia species to be tested. In the upper panel, inhibition of Malassezia globosa is shown; in the bottom panel, Malassezia restricta is shown.
(§4) In order to identify strains whose growth inhibits Malassezia, inhibition assays were performed using a modified disc diffusion method. This method is similar to the classical disc diffusion method that consists in depositing discs imbibed with potential inhibitory substances on Petri plates containing a strain of interest, except that the discs were imbibed with a living culture of an Acetobacter strain. After optimal growth of the strain of interest, growth inhibition can be observed around discs on which the growth of inhibitory bacteria has occurred. Ketoconazole (at 1 mg/mL in DMSO) was used as a positive control for Malassezia growth inhibition. The effect of growth of Acetobacter was tested on Malassezia restricta and Malassezia globosa. All Malassezia strains were streaked from −80° C. stock on Modified Leeming and Notman (MLN) agar plates and incubated 10 days at 30° C. […]

Malassezia restricta [4] = experiment: as above; conditions: M. restricta lawn; discs soaked with 15 ul exponentially growing Acetobacter culture or ketoconazole 1 mg/mL in DMSO; 5 days incubation
Procedure: as §3, §4

CC(=O)N1CCN(c2ccc(OCC3COC(Cn4ccnc4)(c4ccc(Cl)cc4Cl)O3)cc2)CC1 (stereo not drawn) [ketoconazole]
growth inhibition (inhibition halo around disc) (Malassezia furfur): inhibits growth; also recorded: inhibited
growth inhibition (inhibition halo around disc) (Malassezia globosa [1]): inhibits growth; also recorded: inhibited
growth inhibition (inhibition halo around disc) (Malassezia restricta [2]): inhibits growth; also recorded: inhibited
growth inhibition (inhibition halo around disc) (Malassezia sympodialis): inhibits growth; also recorded: inhibited
growth inhibition (inhibition halo around disc) (Malassezia globosa [3]): inhibits growth; also recorded: inhibited
growth inhibition (inhibition halo around disc) (Malassezia restricta [4]): inhibits growth; also recorded: inhibited
